US20020103141A1, “Antiangiogenic combination therapy for the treatment of cancer” (priority 1998, published 2002)
Where a name gives a salt, the structure may show the parent alone. Read-outs that look alike come from different tables or passages of the source.

Assays:
[1] = cited from earlier work
COX-2 = target: T1, COX-2 (UniProt P35354); assay: Fast assay for COX-2 activity (PGE2 ELISA); conditions: read-out: COX-2* IC50, recombinant COX-2, PGE2 ELISA, 10 min pre-incubation at 25° C.
T1 sequence (P35354 1-604): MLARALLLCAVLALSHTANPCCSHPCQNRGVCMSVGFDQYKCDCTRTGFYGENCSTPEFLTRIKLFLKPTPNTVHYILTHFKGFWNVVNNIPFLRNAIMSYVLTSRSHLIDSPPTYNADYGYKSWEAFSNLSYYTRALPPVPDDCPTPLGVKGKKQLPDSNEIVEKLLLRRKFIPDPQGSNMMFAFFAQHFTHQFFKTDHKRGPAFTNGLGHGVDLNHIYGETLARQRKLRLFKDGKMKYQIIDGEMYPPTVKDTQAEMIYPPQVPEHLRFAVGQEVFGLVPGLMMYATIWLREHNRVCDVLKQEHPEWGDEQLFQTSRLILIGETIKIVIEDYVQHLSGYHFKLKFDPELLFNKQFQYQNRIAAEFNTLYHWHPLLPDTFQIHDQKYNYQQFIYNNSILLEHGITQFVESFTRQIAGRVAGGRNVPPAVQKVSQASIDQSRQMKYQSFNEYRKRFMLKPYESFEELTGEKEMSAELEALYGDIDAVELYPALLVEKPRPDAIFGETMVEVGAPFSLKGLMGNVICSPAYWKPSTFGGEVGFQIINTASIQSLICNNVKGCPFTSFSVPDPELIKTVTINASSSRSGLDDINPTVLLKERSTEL
Procedure: (§1) The homogenate was centrifuged at 10,000×G for 30 minutes, and the resultant supernatant was stored at −80° C. before being assayed for COX activity.
(§2) COX activity was assayed as PGE2 formed/μg protein/time using an ELISA to detect the prostaglandin released. CHAPS-solubilized insect cell membranes containing the appropriate COX enzyme were incubated in a potassium phosphate buffer (0.05 M Potassium phosphate, pH 7.5, 2 μM phenol, 1 μM heme, 300 μM epinephrine) with the addition of 20 μl of 100 μM arachidonic acid (10 μM). […] The PGE2 formed was measured by standard ELISA technology (Cayman Chemical).

COX-1 = COX-1 (UniProt P23219); assay: Fast assay for COX-1 activity (PGE2 ELISA); conditions: read-out: COX-1* IC50, recombinant COX-1, PGE2 ELISA, 10 min pre-incubation at 25° C.
Procedure: as §1, §2

[2] = cited from earlier work; remark: listed apart in the source
Lewis Lung tumor cells = assay: Lewis Lung Model: tumor volume and lung metastasis; assay type: in vivo, Mice
From the text: The data is expressed as the mean +/−SEM. […] Analysis of lung metastasis is done in all the animals by counting metastasis in a stereomicroscope and by histochemical analysis of consecutive lung sections.

[3] = doses of 15 mg/kg/day, biliary cirrhosis trials; cited from earlier work
[4] = cited from earlier work; remark: listed apart in the source

SMILES	melting point	IC50 (COX-1)	further results
CC[C@@]1(O)C(=O)OCc2c1cc1n(c2=O)Cc2cc3c(N)cccc3nc2-1 [9-aminocamptothecin, 1H-Pyrano[3′,4′:6,7]indolizino[1,2-b]quinoline-3,14(4H,12H)-dione, 10-amino-4-ethyl-4-hydroxy-, (S)-]			Maximum tolerated dose ([1]; in vivo): dose = 45 mug/square metre/hr
O=C(O)C1=Cc2c(cc(Cl)c(Cl)c2Cl)OC1C(F)(F)F (stereo not shown) [Example 19, 5,6,7-Trichloro-2-(trifluoromethyl)-2H-1-benzopyran-3-carboxylic acid]	236.2 to 239.3 °C		
O=C(O)C1=Cc2cc(C(F)(F)F)ccc2OC1C(F)(F)F (stereo not shown) [Example 18, 2,6-Bis(trifluoromethyl)-2H-1-benzopyran-3-carboxylic acid]	143.5 to 145.2 °C		
Cc1c(Cl)cc2c(c1Cl)OC(C(F)(F)F)C(C(=O)O)=C2 (stereo not shown) [Example 9, 6,8-Dichloro-7-methyl-2-(trifluoromethyl)-2H-1-benzopyran-3-carboxylic acid]	229.9 to 230.9 °C	1 µM	IC50 (COX-2): 0.9 µM
O=C(O)C1=Cc2cc(Cl)ccc2OC1C(F)(F)F (stereo not shown) [Example 1, 6-Chloro-2-trifluoromethyl-2H-1-benzopyran-3-carboxylic acid]		43 µM	IC50 (COX-2): 0.7 µM
O=C(O)C1=Cc2cc(Cl)ccc2O[C@@H]1C(F)(F)F [Example 2, (S)-6-Chloro-2-trifluoromethyl-2H-1-benzopyran-3-carboxylic acid]	126.7 to 128.9 °C		
O=C(O)C1=Cc2cc(Cl)ccc2NC1C(F)(F)F (stereo not shown) [Example 12, 6-Chloro-1,2-dihydro-2-(trifluoromethyl)-3-quinolinecarboxylic acid]	187.8 to 188.8 °C	> 500 µM	IC50 (COX-2): 0.6 µM
O=C(O)C1=Cc2cc(OC(F)(F)F)ccc2OC1C(F)(F)F (stereo not shown) [Example 5, 6-Trifluoromethoxy-2-trifluoromethyl-2H-1-benzopyran-3-carboxylic acid]		18.8 µM	
O=C(O)C1=Cc2c(ccc(Cl)c2Cl)OC1C(F)(F)F (stereo not shown) [Example 17, 5,6-Dichloro-2-(trifluoromethyl)-2H-1-benzopyran-3-carboxylic acid]	211.5 to 213.5 °C		
O=C(O)C1=Cc2cc(Cl)cc(Cl)c2SC1C(F)(F)F (stereo not shown) [Example 24, 6,8-Dichloro-2-trifluoromethyl-2H-1-benzothiopyran-3-carboxylic acid]		0.2 µM	
CC[C@@]1(O)C(=O)OCc2c1cc1n(c2=O)Cc2cc3c(CN(C)C)c(O)ccc3nc2-1 [Topotecan hydrochloride, (S)-10-((dimethylamino)methyl)-4-ethyl-4,9-dihydroxy-1H-pyrano(3′,4′:6,7)indolizino(1,2-B)quinoline-3,14-(4H,12H)-dione monohydrochloride]			LD10 ([2]; mice, single IV infusion): 75 mg/m^2
O=C(O)C1=Cc2cc(Cl)c(Cl)cc2OC1C(F)(F)F (stereo not shown) [Example 16, 6,7-Dichloro-2-trifluoromethyl-2H-1-benzopyran-3-carboxylic acid]	196.1 to 198.3 °C	94.6 µM	
Cc1ccc(-c2cc(C(F)(F)F)nn2-c2ccc(S(N)(=O)=O)cc2)cc1 [Celecoxib, 4-[5-(4-methylphenyl)-3-(trifluoromethyl)-1H-pyrazol-1-yl]-benzenesulfonamide]			size of the metastatic lesions in the lung (Lewis Lung tumor cells; histopathological analysis): dose-dependently reduces the size of the metastasic lesions in the lung; effect on lung metastasis (Lewis Lung tumor cells; lower dose of 160 ppm in the diet): does not affect lung metastasis
C[C@H](CCC(=O)O)[C@H]1CC[C@H]2[C@@H]3[C@@H](O)C[C@@H]4C[C@H](O)CC[C@]4(C)[C@H]3CC[C@]12C [URSO]			tolerability and toxicity [3]: extremely well tolerated and without toxicity
O=C(O)C1=Cc2cc(Br)ccc2NC1C(F)(F)F (stereo not shown) [Example 22, 6-Bromo-1,2-dihydro-2-(trifluoromethyl)-3-quinolinecarboxylic acid]	185 to 186 °C	> 100 µM	IC50 (COX-2): 0.4 µM
CC(C)(C)c1ccc2c(c1)OC(C(F)(F)F)C(C(=O)O)=C2 (stereo not shown) [Example 15, 7-(1,1-Dimethylethyl)-2-trifluoromethyl-2H-1-benzopyran-3-carboxylic acid]	165.6 to 166.8 °C	57 µM	IC50 (COX-2): 3.6 µM
O=Cc1ccc2c(c1)C=C(C(=O)O)C(C(F)(F)F)O2 (stereo not shown) [Example 7, 6-Formyl-2-(trifluoromethyl)-2H-1-benzopyran-3-carboxylic acid]	211.3 to 215.7 °C	> 500 µM	
O=C(O)C1=Cc2cc(Cl)ccc2N[C@@H]1C(F)(F)F [Example 13, (S)-6-chloro-1,2-dihydro-2-(trifluoromethyl)-3-quinolinecarboxylic acid]	173 to 176 °C	> 100 µM	IC50 (COX-2): 0.2 µM
O=C1c2c(c3c4ccc(O)cc4n([C@@H]4O[C@H](CO)[C@@H](O)[C@H](O)[C@H]4O)c3c3[nH]c4cc(O)ccc4c23)C(=O)N1NC(CO)CO [J 107088, 5H-Indolo[2,3-a]pyrrolo[3,4-c]carbazole-5,7(6H)-dione, 12-β-D-glucopyranosyl-12,13-dihydro-2,10-dihydroxy-6-[[2-hydroxy-1-(hydroxymethyl)ethyl]amino]-]			Maximum tolerated dose ([1]; in vivo): 7.5 mg/m2
O=C(O)C1=Cc2cc(Cl)c(Cl)c(Cl)c2OC1C(F)(F)F (stereo not shown) [Example 20, 6,7,8-Trichloro-2-(trifluoromethyl)-2H-1-benzopyran-3-carboxylic acid]	222 to 225.3 °C		
O=C(O)C1=Cc2cc(C(F)F)ccc2OC1C(F)(F)F (stereo not shown) [Example 8, 6-(Difluoromethyl)-2-(trifluoromethyl)-2H-1-benzopyran-3-carboxylic acid]	134.7 to 136.2 °C		
CC[C@@]1(O)C(=O)OCc2c1cc1n(c2=O)Cc2cc3c([N+](=O)[O-])cccc3nc2-1 [rubitecan, 1H-Pyrano[3′,4′:6,7]indolizino[1,2-b]quinoline-3,14(4H,12H)-dione, -4-ethyl-4-hydroxy-10-nitro-, (S)-]			grade 4 anemia ([1]; % of patients): 29% of; grade 4 thrombocytopenia ([1]; % of patients): penia in 18%.; chemical cystitis, Grade 2 or higher ([1]; occurred at each dose level): (25%),; diarrhea, Grade 2 or higher ([1]; occurred at each dose level): (32%),; nausea and vomiting, Grade 2 or higher ([1]; occurred at each dose level): (54%),; neutropenic sepsis, Grade 2 or higher ([1]; occurred at each dose level): sepsis (21%),; weight loss, Grade 2 or higher ([1]; occurred at each dose level): loss (18%).; Maximum tolerated dose ([1]; over five consecutive days repeated every week): 1.5 mg/ mg/m2/day
CSc1ccc2c(c1)C=C(C(=O)O)C(C(F)(F)F)O2 (stereo not shown) [Example 2, 6-(Methylthio)-2-(trifluoromethyl)-2H-1-benzopyran-3-carboxylic acid]	166.3 to 167.9 °C		
Cc1cc2c(cc1Cl)C=C(C(=O)O)C(C(F)(F)F)S2 (stereo not shown) [Example 23, 6-Chloro-7-methyl-2-(trifluoromethyl)-2H-1-benzothiopyran-3-carboxylic acid]	240.5 to 241.7 °C	365 µM	
CC[C@@]1(O)C(=O)OCc2c1cc1n(c2=O)Cc2cc3c(CN(C)C)c(O)ccc3nc2-1 [Topotecan, 1H-Pyrano[3′,4′:6,7]indolizino[1,2-b]quinoline-3,14(4,H,12H)-dione, 10-[(dimethylamino)methyl]-4-ethyl-4,9-dihydroxy-, (S)-]			Maximally tolerated dose ([1]; × 5 d every 3 to 4 wk): dose: 1.5 mg/m^2
CCc1c2c(nc3ccc(OC(=O)N4CCC(N5CCCCC5)CC4)cc13)-c1cc3c(c(=O)n1C2)COC(=O)[C@]3(O)CC.Cl [Irinotecan hydrochloride, (4S)-4,11-diethyl-4-hydroxy-9-((4-piperidinopiperidino)carbonyloxy)-1H-pyrano(3′,4′:6,7)indolizino(1,2-b)quinoline-3,14(4H,12H)dione hydrochloride]			Lethality in mice [2]: mice: 111 mg/kg; Lethality in rats [4]: in rats: 73 mg/kg
O=C(O)C1=Cc2cc(I)ccc2NC1C(F)(F)F (stereo not shown) [Example 21, 6-Iodo-1,2-dihydro-2-(trifluoromethyl)-3-quinolinecarboxylic acid]	188 to 192 °C	> 100 µM	IC50 (COX-2): 0.8 µM
O=C(O)C1=Cc2cc(Cl)cc(Cl)c2NC1C(F)(F)F (stereo not shown) [Example 14, 6,8-Dichloro-1,2-dihydro-2-(trifluoromethyl)-3-quinolinecarboxylic acid]	223.4 to 225.7 °C	9.7 µM	IC50 (COX-2): 0.2 µM
